Laboratory results reported in patent US5436254A, “Carbostyril derivatives” (Otsuka Pharmaceutical Company, Ltd., priority 1989, dated 1995).
Counter-ions that a name gives are not always drawn. Like-named read-outs stand apart in the source and are kept apart here.

Biological target: V1 receptor (Rattus norvegicus, UniProt P30560)
Experiment: biochemical
Type: binding

Chain of V1 receptor (P30560 whole entry): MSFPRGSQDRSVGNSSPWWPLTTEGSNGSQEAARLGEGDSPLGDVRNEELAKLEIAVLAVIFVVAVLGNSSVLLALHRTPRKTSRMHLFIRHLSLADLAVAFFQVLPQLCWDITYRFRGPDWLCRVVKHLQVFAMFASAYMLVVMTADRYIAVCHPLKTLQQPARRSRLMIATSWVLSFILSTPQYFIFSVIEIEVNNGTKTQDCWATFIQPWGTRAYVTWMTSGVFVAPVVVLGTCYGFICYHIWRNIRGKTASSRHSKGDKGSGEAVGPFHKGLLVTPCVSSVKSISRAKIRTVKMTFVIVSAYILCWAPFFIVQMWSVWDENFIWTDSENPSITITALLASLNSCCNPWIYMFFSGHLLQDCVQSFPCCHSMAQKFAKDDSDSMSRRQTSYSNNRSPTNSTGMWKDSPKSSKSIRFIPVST

Compound	IC50 [nM]	IC50 ([H]3-Arg-vasopressin 2×10^-10 M, rat liver plasma membrane, 37° C., 10 minutes, pH 8.0) [nM]
COc1ccc(C(=O)N2CCC(N3C(=O)CCc4ccccc43)CC2)c(NC(C)=O)c1 [Example 104, 1-[1-(4-Methoxy-2-acetylaminobenzoyl)-4-piperidinyl]-3,4-dihydrocarbostyril]	1000	–
CNC(=O)CNc1cc(OC)ccc1C(=O)N1CCC(N2C(=O)CCc3ccccc32)CC1 [Example 105, 1-[1-(4-Methoxy-2-methylaminocarbonylmethylamino)-4-piperidinyl]-3,4-dihydrocarbostyril]	1200	–
O=C(c1ccc(C(F)(F)F)cc1)N1CCC(N2C(=O)CCc3ccccc32)CC1 [Example 106, 1-[1-(4-Trifluoromethylbenzoyl)-4-piperidinyl]-3,4-dihydrocarbostyril]	700	–
CC(=O)c1ccc(C(=O)N2CCC(N3C(=O)CCc4ccccc43)CC2)cc1 [Example 107, 1-[1-(4-Acetylbenzoyl)-4-piperidinyl]-3,4-dihydrocarbostyril]	750	–
O=C(c1ccc(C=NO)cc1)N1CCC(N2C(=O)CCc3ccccc32)CC1 [Example 108, 1-[1-(4-Hydroxyiminomethylbenzoyl)-4-piperidinyl]-3,4-dihydrocarbostyril]	1400	–
COCc1ccc(C(=O)N2CCC(N3C(=O)CCc4ccccc43)CC2)cc1 [Example 109, 1-[1-(4-Methoxymethylbenzoyl)-4-piperidinyl]-3,4-dihydrocarbostyril]	750	–
C[Si](C)(C)c1ccc(C(=O)N2CCC(N3C(=O)CCc4ccccc43)CC2)cc1 [Example 110, 1-[1-(4-Trimethylsilylbenzoyl)-4-piperidinyl]-3,4-dihydrocarbostyril]	1300	–
C=CCc1ccc(C(=O)N2CCC(N3C(=O)CCc4ccccc43)CC2)cc1 [Example 111, 1-[1-(4-Allylbenzoyl)-4-piperidinyl]-3,4-dihydrocarbostyril]	730	–
O=C(c1ccc(C2CCCCC2)cc1)N1CCC(N2C(=O)CCc3ccccc32)CC1 [Example 112, 1-[1-(4-Cyclohexylbenzoyl)-4-piperidinyl]-3,4-dihydrocarbostyril]	970	–
O=C(c1ccc2c(c1)OCO2)N1CCC(N2C(=O)CCc3ccccc32)CC1 [Example 113, 1-[1-(3,4-Methylenedioxybenzoyl)-4-piperidinyl]-3,4-dihydrocarbostyril]	980	–
CC(C)=CCCC(C)=CC(=O)N1CCC(N2C(=O)CCc3ccccc32)CC1 [Example 114, 1-[1-(2,6-Dimethyl-1,5-heptadiene-1-carbonyl)-4-piperidinyl]-3,4-dihydrocarbostyril]	1500	–
O=C(CC12CC3CC(CC(C3)C1)C2)N1CCC(N2C(=O)CCc3ccccc32)CC1 [Example 115]	700	–
O=C(c1ccc2ccccc2c1)N1CCC(N2C(=O)CCc3ccccc32)CC1 [Example 116, 1-[1-(2-Naphthylcarbonyl)-4-piperidinyl]-3,4-dihydrocarbostyril]	760	–
O=C(c1cnc2ccccc2c1)N1CCC(N2C(=O)CCc3ccccc32)CC1 [Example 117, 1-[1-(3-quinolylcarbonyl)-4-piperidinyl]-3,4-dihydrocarbostyril]	1500	–
COc1ccc(C(=O)N2CCC(N3C(=O)CCc4ccccc43)C(C)C2)c(OC)c1 (stereo not shown) [Example 118, 1-[3-Methyl-1-(2,4-dimethoxycarbonyl)-4-piperidinyl]-3,4-dihydrocarbostyril]	–	260
COc1ccc(C(=O)N2CCC(N3C(=O)CCc4ccccc43)CC2)cc1[N+](=O)[O-] [Example 119, 1-[1-(3-Nitro-4-methoxybenzoyl)-4-piperidinyl]-3,4-dihydrocarbostyril]	1400	–
CCOc1ccc(C(=O)N2CCC(N3C(=O)CCc4cc(F)c(F)cc43)CC2)c(OC)c1 [Example 120, 6,7-Difluoro-1-[1-(2-methoxy-4-ethoxybenzoyl)-4-piperidinyl]-3,4-dihydrocarbostyril]	200	–
CNC(=O)CCCOc1ccc(C(=O)N2CCC(N3C(=O)CCc4ccccc43)CC2)cc1 [Example 121, 1-{1-[4-(3-Methylaminocarbonylpropoxy)benzoyl]-4-piperidinyl}-3,4-dihydrocarbostyril]	460	–
O=C(c1ccc(C=CCCO)cc1)N1CCC(N2C(=O)CCc3ccccc32)CC1 [Example 122, 1-{1-[4-(4-Hydroxy-1-butenyl)benzoyl]-4-piperidinyl}-3,4-dihydrocarbostyril]	710	–
O=C(c1ccc(CCCCO)cc1)N1CCC(N2C(=O)CCc3ccccc32)CC1 [Example 123, 1-{1-[4-(4-Hydroxybutyl)benzoyl]-4-piperidinyl}-3,4-dihydrocarbostyril]	350	–

Compound	IC50 [nM]	IC50 ([H]3-Arg-vasopressin 2×10^-10 M, rat liver plasma membrane, 37° C., 10 minutes, pH 8.0) [nM]
CC(=O)OCCCCc1ccc(C(=O)N2CCC(N3C(=O)CCc4ccccc43)CC2)cc1 [Example 124, 1-{1-[4-(4-Acetoxybutyl)benzoyl]-4-piperidinyl}-3,4-dihydrocarbostyril]	320	–
O=C(c1ccc(OCCCCn2cccc2)cc1)N1CCC(N2C(=O)CCc3ccccc32)CC1 [Example 125, 1-[1-{4-[4-(1-pyrrolyl)butoxy]benzoyl}-4-piperidinyl]-3,4-dihydrocarbostyril]	590	–
CNc1ccc(C(=O)NCCCCOc2ccc(C(=O)N3CCC(N4C(=O)CCc5ccccc54)CC3)cc2)cc1 [Example 126, 1-[1-{4-[(4-Methylaminobenzoyl)aminobutoxy]-benzoyl}-4-piperidinyl]-3,4-dihydrocarbostyril]	360	–
CC[S+]([O-])CCCOc1ccc(C(=O)N2CCC(N3C(=O)CCc4ccccc43)CC2)cc1 (stereo not shown) [Example 127, 1-{1-[4-(Ethylsulfinylpropoxy)benzoyl]-4-piperidinyl}-3,4-dihydrocarbostyril]	610	–
O=C(c1ccc(OCCCCCCO)cc1)N1CCC(N2C(=O)CCc3ccccc32)CC1 [Example 128, 1-{1-[4-(6-Hydroxyhexyloxy)benzoyl]-4-piperidinyl}-3,4-dihydrocarbostyril]	230	–
NC(=O)OCCCCCOc1ccc(C(=O)N2CCC(N3C(=O)CCc4ccccc43)CC2)cc1 [Example 129, 1-{1-[4-(5-Carbamoyloxypentyloxy)benzoyl]-4-piperidinyl}-3,4-dihydrocarbostyril]	180	–
CC(=O)OCCCCCCOc1ccc(C(=O)N2CCC(N3C(=O)CCc4ccccc43)CC2)cc1 [Example 130, 1-{1-[4-(6-Acetoxyhexyloxy)benzoyl]-4-piperidinyl}-3,4-dihydrocarbostyril]	390	–
CN(C)CC(O)CCCCOc1ccc(C(=O)N2CCC(N3C(=O)CCc4ccccc43)CC2)cc1 (stereo not shown) [Example 131, 1-{1-[4-(6-Dimethylamino-5-hydroxyhexyloxy)benzoyl]-4-piperidinyl}-3,4-dihydrocarbostyril]	66	–
O=C(c1ccc(OCCCN2CCNCC2)cc1)N1CCC(N2C(=O)CCc3ccccc32)CC1 [Example 132, 1-[1-{4-[3-(1-piperazinyl)propoxy]benzoyl}-4-piperidinyl]-3,4-dihyrocarbostyril.dihydrochloride.trihydrate]	160	–
O=C(c1ccc(OCCCN2CCN(Cc3ccccc3)CC2)cc1)N1CCC(N2C(=O)CCc3ccccc32)CC1 [Example 133, 1-[1-{4-[3-(4-Benzyl-1-piperazinyl)propoxy]benzoyl}-4-piperidinyl]-3,4-dihydrocarbostyril.dioxalate]	330	–
CC(=O)N1CCN(CCCOc2ccc(C(=O)N3CCC(N4C(=O)CCc5ccccc54)CC3)cc2)CC1 [Example 134, 1-[1-{4-[3-(4-Acetyl-1-piperazinyl)propoxy]-benzoyl}-4-piperidinyl]-3,4-dihydrocarbostyril]	160	–
O=C(Nc1ccccc1)N1CCN(CCCOc2ccc(C(=O)N3CCC(N4C(=O)CCc5ccccc54)CC3)cc2)CC1 [Example 135, 1-[1-{4-[3-(4-Anilinocarbonyl-1-piperazinyl)propoxy]benzoyl}-4-piperidinyl]-3,4-dihydrocarbostyril]	200	–
CN1CCN(CCCOc2ccc(C(=O)N3CCC(N4C(=O)CCc5ccccc54)CC3)cc2)CC1 [Example 136, 1-[1-{4-[3-(4-Methyl-1-piperazinyl)propoxy]benzoyl}-4-piperidinyl]-3,4-dihydrocarbostyril.dioxalate]	180	–
O=C(CN1CCN(CCCOc2ccc(C(=O)N3CCC(N4C(=O)CCc5ccccc54)CC3)cc2)CC1)c1ccccc1 [Example 137, 1-[1-{4-[3-(4-Benzoylmethyl-1-piperazinyl)propoxy]benzoyl}-4-piperidinyl]-3,4-dihydrocarbostyril.dioxalate]	120	–
O=C(c1ccc(OCCCN2CCN(CC(O)c3ccccc3)CC2)cc1)N1CCC(N2C(=O)CCc3ccccc32)CC1 (stereo not shown) [Example 138, 1-{1-[4-{3-[4-(2-Phenyl-2-hydroxyethyl)-1-piperazinyl]propoxy}benzoyl]-4-piperidinyl}-3,4-dihydrocarbostyril.dioxalate]	240	–
CCOc1ccc(C(=O)N2CCC(N3C(=O)CCc4c(F)cc(F)cc43)CC2)c(OC)c1 [Example 139, 5,7-Difluoro-1-[1-(2-methoxy-4-ethoxybenzoyl)-4-piperidinyl]-3,4-dihydrocarbostyril]	51	–
CS(=O)(=O)NCCCCCCOc1ccc(C(=O)N2CCC(N3C(=O)CCc4ccccc43)CC2)cc1 [Example 142, 1-{1-[4-(6-Methylsulfonylaminohexyloxy)benzoyl]-4-piperidinyl}-3,4-dihydrocarbostyril]	100	–
CCS(=O)(=O)CCCOc1ccc(C(=O)N2CCC(N3C(=O)CCc4ccccc43)CC2)cc1 [Example 143, 1-{1-[4-(3-Ethylsulfonylpropoxy)benzoyl]-4-piperidinyl}-3,4-dihydrocarbostyril]	550	–
CCN(CC)CC(O)CCCCOc1ccc(C(=O)N2CCC(N3C(=O)CCc4ccccc43)CC2)cc1 (stereo not shown) [Example 144, 1-{1-[4-(6-Diethylamino-5-hydroxyhexyloxy)benzoyl]-4-piperidinyl}-3,4-dihydrocarbostyril]	22	–
O=CNCCCOc1ccc(C(=O)N2CCC(N3C(=O)CCc4ccc(F)cc43)CC2)cc1 [Example 145, 1-{1-[4-(3-Formylaminopropoxy)benzoyl]-4-piperidinyl}-7-fluoro-3,4-dihydrocarbostyril]	170	–
